From publication PMC3427410 (Nature chemical biology, 2012)

Biological target: T1, FUT7 (Homo sapiens, UniProt Q11130)
T1 sequence (Q11130 1-342): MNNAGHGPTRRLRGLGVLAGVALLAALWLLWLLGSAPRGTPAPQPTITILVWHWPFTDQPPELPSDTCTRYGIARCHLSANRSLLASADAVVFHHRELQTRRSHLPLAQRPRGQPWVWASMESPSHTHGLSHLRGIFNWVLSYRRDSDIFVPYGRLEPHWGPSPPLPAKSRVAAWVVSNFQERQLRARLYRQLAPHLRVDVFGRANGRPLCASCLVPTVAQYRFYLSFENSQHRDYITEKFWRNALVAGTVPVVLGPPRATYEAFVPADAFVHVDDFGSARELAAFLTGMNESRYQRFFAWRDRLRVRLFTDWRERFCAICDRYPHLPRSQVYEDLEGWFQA
Assay: in vitro fucosyltransferase assay, competition with GDP-Fuc transfer
Assay type: biochemical

Nc1nc2c(ncn2[C@@H]2O[C@H](COP(=O)(O)OP(=O)(O)O[C@H]3O[C@@H](CF)[C@@H](O)[C@@H](O)[C@@H]3O)[C@@H](O)[C@H]2O)c(=O)[nH]1 [compound 6, GDP-6F-Fuc]
IC50: ~2.5 µM
